# Results taken from patent publication US20240246934A1, “QUINAZOLINE-BASED COMPOUND, COMPOSITION, AND APPLICATION OF QUINAZOLINE-BASED COMPOUND” (BEIJING SCITECH-MQ PHARMACEUTICALS LIMITED, priority 2021, published 2024).
# Columns and labels:
# [1] = biological target: T1, HER2 kinase (Homo sapiens, UniProt P04626); assay: HER2 kinase assay (ULight/PT66 TR-FRET); type: biochemical
# T1 construct: purchased Carna Biosciences 08-016
# Description: (§1) Preparation of compound solution: The assay compound was dissolved in DMSO to form a 10 mM stock solution. Prior to use, the compound was diluted to 0.25 mM in DMSO (100 times the final concentration of the diluent) and then subjected to a 3-fold concentration gradient dilution to obtain a total of 11 concentrations. The solution was diluted with buffer to a diluent with 4× the final concentration when the compound was added.
# (§2) HER2 kinase assay: buffer was prepared, and 40 nM 4×Her2 kinase solution, 40 μM 4×ATP solution, and 400 nM 4×ULight™-labeled Ploy GT Peptide substrate solution were prepared using the buffer. After the preparation was completed, the enzyme was mixed with different concentrations of compounds pre-prepared by dilution, and the mixture was left to stand at room temperature for 5 min. Each concentration was performed in duplicate. The corresponding substrate and ATP were added and the mixture was reacted at room temperature for 120 minutes (with negative and positive controls). After completion of the reaction, PT66 detection antibody was added. The mixture was incubated at room temperature for 60 minutes, and then detected by Envision.
# (§3) Compound concentrations and corresponding inhibition rates were input into GraphPad Prism for processing to calculate IC50 values.
# [2] = biological target: EGFR^WT kinase (Homo sapiens, UniProt P00533); assay: EGFR^WT kinase assay (ULight/PT66 TR-FRET); type: biochemical
# Description: as §1
# as §2, with “EGFR^WT kinase assay:” for “HER2 kinase assay:”, “prepared, and 3.48 nM 4×EGFR” for “prepared, and 40 nM 4×Her2”, “3.48 nM 4×EGFR kinase solution,” for “40 nM 4×Her2 kinase solution,”, “kinase solution, 600 μM 4×ATP” for “kinase solution, 40 μM 4×ATP”, “nM 4×ULight™-labeled JAK-1 (Try1023) Peptide substrate” for “nM 4×ULight™-labeled Ploy GT Peptide substrate”
# as §3
# [3] = biological target: Ba/F3 HER2 A775_G776insYVMA cells (Homo sapiens, UniProt P04626, DUP772-775, cells depend on it); assay: Inhibition of cell proliferation, CTG method, Ba/F3 HER2 A775_G776insYVMA; type: cell-based; details: 72 hours, read-out: Ba/F3 HER2 A775-G776insYVMA IC50
# Text: The present application examined the in vitro anti-proliferative activity of the compounds of the present disclosure against in vitro cultured BT474, NCI-N87, Ba/F3-EGFR-VIII and Ba/F3 HER2 A775_G776insYVMA and Ba/F3 EGFR D770_N771insSVD cell lines by CTG method.
# Cell lines: BT474 (from the cell bank of Chinese Academy of Sciences), NCI-N87 (from ATCC), Ba/F3-EGFR-VIII, Ba/F3 HER2 A775_G776insYVMA and Ba/F3 EGFR D770_N771insSVD (all from KYinno Biotechnology (Beijing) Co., Ltd.); all of the above cells were cultured with RPMI1640 medium containing 10% fetal bovine serum, 100 U/mL penicillin, and 100 μg/mL streptomycin in the culture process.
# 1. The assay compound was dissolved with DMSO to form a stock solution and a gradient dilution was performed, followed by dilution with the corresponding medium to obtain a solution with 5-fold working concentration.
# 2. Cells in logarithmic growth phase were adjusted to specific cell densities by dilution with culture medium, and 80 μL of cell suspension was added to a 96-well plate, such that plating densities of cells of BT474, NCI-N87, Ba/F3-EGFR-VIII, Ba/F3 HER2 A775_G776insYVMA and Ba/F3 EGFR D770_N771insSVD were all 3000 cells/well. The cells of Ba/F3-EGFR-VIII, Ba/F3 HER2 A775_G776insYVMA and Ba/F3 EGFR D770_N771insSVD were used directly in the next step (treatment with compound), whereas the BT474 and NCI-N87 needed to be cultured overnight in a 37° C., 5% carbon dioxide gas incubator to adhere to the wall, and then treated with compounds.
# 3. […] The highest concentration of the assayed compound was 10 μM, 4-fold serial dilution, a total of 9 concentrations, and duplicate wells. A control group without compound was also set up.
# 4. The cells were cultured for another 72 hours, and then cell viability was detected by CTG assay kit. Signal values were read with a multifunctional plate reader (Perkin Elmer). GraphPad Prism software was used to create a dose-response curve and IC50 was calculated.
# [4] = Pharmacokinetics in SD rats, single intravenous injection and oral administration; type: in vivo, SD rat
# Description: In this assay, the pharmacokinetic characteristics of the compounds of the present application were assayed after administration of some of the compounds of the present application to SD rats by single oral administration and intravenous injection. 1. […] The mixture was stirred, vortexed and/or sonicated. Once a solution was obtained, the vehicle was gradually added to a final volume to reach the target concentration. The solution was vortexed, and sonicated to obtain a homogeneous solution. The solution was filtered through a 0.22 μm PVDF membrane. 2. […] The mixture was stirred, vortexed and/or sonicated. Once a solution was obtained, the vehicle was gradually added to a final volume to reach the target concentration. The solution was vortexed, and sonicated to obtain a homogeneous solution. […] Meanwhile, the IV group was not fasted and the PO group was fasted overnight (>12 hrs) and given food 2 hrs after drug administration. All animals had free access to water. The dosing regimen and pharmacokinetic sampling regimen are given in Table 6 and Table 7 below, respectively. […] Rats were administered according to the above regimen, and blood and brain tissue samples were collected and processed at predetermined time points (collection and processing were performed according to conventional methods in the art). […] The supernatant was diluted 2-fold with ultra-pure water, and the samples were analyzed by LC/MS. Pharmacokinetic parameters was calculated using WinNonlin software. The following pharmacokinetic parameters was calculated from the plasma drug concentration-time data: CL (clearance); Vd (apparent volume of distribution); T1/2 (elimination half-life time); Cmax (peak concentration); Tmax (time to peak); AUC (area under plasma drug concentration-time curve); MRT (mean retention time); F % (bioavailability).
# [5] = SD, rat, whole blood, IV 3 mg/kg
# T1 sequence (P04626 23-1255): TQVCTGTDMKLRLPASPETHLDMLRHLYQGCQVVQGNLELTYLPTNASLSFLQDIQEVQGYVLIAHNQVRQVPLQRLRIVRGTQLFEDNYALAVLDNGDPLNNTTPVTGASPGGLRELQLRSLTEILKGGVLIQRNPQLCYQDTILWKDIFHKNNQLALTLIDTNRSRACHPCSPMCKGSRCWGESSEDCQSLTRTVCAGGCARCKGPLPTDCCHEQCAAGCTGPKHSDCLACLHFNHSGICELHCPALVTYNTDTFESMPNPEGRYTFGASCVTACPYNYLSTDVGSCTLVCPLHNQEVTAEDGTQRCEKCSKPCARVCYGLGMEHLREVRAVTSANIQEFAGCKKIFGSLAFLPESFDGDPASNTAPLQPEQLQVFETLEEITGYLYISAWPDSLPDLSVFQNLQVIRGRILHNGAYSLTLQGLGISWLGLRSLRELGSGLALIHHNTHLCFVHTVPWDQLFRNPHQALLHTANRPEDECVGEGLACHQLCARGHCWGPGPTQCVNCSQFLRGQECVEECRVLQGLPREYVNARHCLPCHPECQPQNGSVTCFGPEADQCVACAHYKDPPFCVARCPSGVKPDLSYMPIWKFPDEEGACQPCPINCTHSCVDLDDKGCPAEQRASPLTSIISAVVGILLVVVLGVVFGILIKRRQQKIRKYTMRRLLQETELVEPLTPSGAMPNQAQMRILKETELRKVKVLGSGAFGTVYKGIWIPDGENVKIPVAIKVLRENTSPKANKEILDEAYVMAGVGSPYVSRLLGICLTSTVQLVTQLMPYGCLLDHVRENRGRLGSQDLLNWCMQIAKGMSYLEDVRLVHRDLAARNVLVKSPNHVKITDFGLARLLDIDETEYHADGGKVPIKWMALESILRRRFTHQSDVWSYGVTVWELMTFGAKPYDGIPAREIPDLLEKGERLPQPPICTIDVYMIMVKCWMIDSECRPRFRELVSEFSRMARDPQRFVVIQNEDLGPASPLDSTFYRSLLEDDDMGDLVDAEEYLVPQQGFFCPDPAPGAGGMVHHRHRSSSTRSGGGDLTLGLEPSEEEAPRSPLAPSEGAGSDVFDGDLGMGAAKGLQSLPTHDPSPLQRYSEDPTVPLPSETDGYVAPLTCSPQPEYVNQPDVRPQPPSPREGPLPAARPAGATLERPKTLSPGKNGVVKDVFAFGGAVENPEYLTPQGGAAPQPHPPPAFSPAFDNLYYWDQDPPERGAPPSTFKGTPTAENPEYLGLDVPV
# Chain of EGFR^WT kinase (P00533 25-1210): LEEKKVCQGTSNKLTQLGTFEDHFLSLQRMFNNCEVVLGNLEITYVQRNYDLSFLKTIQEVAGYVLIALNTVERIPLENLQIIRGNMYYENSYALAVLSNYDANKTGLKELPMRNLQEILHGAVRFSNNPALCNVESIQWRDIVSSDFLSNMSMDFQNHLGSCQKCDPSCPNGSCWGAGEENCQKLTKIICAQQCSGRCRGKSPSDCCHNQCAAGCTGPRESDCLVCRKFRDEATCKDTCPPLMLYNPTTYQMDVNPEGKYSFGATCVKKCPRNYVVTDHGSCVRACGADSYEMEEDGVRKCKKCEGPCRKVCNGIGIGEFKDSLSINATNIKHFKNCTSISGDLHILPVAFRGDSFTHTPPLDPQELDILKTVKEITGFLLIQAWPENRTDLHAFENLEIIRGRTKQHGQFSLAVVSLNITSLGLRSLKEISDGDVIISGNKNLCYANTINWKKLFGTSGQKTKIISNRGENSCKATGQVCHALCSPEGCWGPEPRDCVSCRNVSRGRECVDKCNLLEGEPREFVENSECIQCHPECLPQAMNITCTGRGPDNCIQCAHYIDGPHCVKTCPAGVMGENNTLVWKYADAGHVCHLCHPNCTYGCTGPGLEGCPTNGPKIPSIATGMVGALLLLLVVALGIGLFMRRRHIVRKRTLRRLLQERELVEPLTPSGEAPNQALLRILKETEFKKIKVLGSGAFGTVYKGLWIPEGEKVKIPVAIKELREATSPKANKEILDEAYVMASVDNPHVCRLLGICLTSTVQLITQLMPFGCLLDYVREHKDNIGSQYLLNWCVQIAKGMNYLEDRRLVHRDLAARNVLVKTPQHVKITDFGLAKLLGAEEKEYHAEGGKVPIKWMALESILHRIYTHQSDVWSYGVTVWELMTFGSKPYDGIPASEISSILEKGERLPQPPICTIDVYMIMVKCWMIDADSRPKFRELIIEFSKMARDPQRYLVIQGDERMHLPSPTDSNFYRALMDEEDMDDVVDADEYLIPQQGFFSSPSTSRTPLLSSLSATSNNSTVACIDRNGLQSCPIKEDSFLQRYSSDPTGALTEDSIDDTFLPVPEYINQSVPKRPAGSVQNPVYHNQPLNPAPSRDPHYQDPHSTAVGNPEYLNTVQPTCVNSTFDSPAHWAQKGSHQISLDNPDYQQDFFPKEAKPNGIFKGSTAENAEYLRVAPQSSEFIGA
# Chain of Ba/F3 HER2 A775_G776insYVMA cells (P04626 with tags, fused parts or gaps DUP772-775): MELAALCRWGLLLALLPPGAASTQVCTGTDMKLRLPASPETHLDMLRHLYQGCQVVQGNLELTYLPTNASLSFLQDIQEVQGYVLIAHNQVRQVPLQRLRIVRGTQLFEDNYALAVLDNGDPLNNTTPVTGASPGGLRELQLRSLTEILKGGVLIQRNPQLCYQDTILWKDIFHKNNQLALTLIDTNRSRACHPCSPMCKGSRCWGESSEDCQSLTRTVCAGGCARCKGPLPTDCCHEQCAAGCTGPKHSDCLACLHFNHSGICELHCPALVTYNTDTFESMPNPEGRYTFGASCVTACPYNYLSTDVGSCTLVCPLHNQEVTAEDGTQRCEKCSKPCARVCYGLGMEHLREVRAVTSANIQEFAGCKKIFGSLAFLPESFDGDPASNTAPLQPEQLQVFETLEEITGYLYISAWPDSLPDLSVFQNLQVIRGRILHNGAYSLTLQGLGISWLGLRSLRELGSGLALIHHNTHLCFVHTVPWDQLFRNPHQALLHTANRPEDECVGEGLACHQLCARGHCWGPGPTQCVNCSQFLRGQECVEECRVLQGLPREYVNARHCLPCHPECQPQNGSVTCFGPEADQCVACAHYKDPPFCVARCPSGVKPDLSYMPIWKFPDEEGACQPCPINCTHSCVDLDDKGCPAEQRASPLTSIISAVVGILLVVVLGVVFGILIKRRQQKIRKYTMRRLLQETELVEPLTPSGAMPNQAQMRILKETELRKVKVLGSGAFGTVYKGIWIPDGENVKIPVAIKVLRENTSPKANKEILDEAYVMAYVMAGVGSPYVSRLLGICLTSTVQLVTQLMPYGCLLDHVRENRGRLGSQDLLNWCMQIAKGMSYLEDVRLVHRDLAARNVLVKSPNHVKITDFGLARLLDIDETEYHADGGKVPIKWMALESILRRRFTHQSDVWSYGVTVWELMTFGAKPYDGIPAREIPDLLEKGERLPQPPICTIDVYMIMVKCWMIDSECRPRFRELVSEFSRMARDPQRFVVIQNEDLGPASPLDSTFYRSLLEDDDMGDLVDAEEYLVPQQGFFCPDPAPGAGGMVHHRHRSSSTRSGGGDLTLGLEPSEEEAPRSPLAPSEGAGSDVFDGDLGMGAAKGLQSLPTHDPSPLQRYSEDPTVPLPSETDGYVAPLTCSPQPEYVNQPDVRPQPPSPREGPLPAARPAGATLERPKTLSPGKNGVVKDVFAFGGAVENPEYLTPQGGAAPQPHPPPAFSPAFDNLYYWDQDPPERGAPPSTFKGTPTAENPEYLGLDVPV
Structure (SMILES),IC50 [1],IC50 [2],GI50 [3],other results
"CCOc1c(NC(=O)/C=C/[C@H]2CCCN2CC)ccc2ncnc(Nc3ccc(OCc4cccc(F)c4)c(Cl)c3)c12 [Example 19, (R,E)-N-(4-((3-chloro-4-(3-fluorobenzyloxy)phenyl)amino)-5-ethoxyquinazolin-6-yl)-3-(1-ethylpyrrolidin-2-yl)acrylamide]",< 10 nM,< 10 nM,1 to 5 nM,
"[2H]C([2H])([2H])Oc1c(NC(=O)/C=C/[C@H]2CCCN2C(C)C)ccc2ncnc(Nc3ccc(OCc4ccccn4)c(Cl)c3)c12 [Example 35, (R,E)-N-(4-((3-chloro-4-(pyridin-2-ylmethoxy)phenyl)amino)-5-(methoxy-d3)quinazolin-6-yl)-3-(1-isopropylpyrrolidin-2-yl)acrylamide]",< 10 nM,10 to 100 nM,1 to 5 nM,
"CN1CCC[C@@H]1/C=C/C(=O)Nc1ccc2ncnc(Nc3ccc(OCc4ccccn4)c(Cl)c3)c2c1 [Control compound 1, reference compound]",,,,"Cl_obs ([4]; IV 3 mg/kg): 72.7 ± 7.1 mL/min/kg; AUC(0-inf) [4, 5]: 693 ± 72 ng·h/mL; AUC(0-t) [4, 5]: 678 ± 74 ng·h/mL; Vd [4, 5]: 31 ± 4.6 L/kg; half-life [4, 5]: 4.91 ± 0.28 h; oral absorption (in words) ([4]; administrated orally): hardly absorbed"
"CN1CCC[C@@H]1/C=C/C(=O)Nc1ccc2ncnc(Nc3ccc(OCc4ccccn4)c(Cl)c3)c2c1OCC1CC1 [Example 38, (R,E)-N-(4-((3-chloro-4-(pyridin-2-ylmethoxy)phenyl)amino)-5-(cyclopropylmethoxy)quinazolin-6-yl)-3-(1-methylpyrrolidone-2-yl)acrylamide]",< 10 nM,< 10 nM,1 to 5 nM,
"CN1CCC[C@@H]1/C=C/C(=O)Nc1ccc2ncnc(Nc3ccc(OCc4cccc(F)c4)c(Cl)c3)c2c1OC1CC1 [Example 41, (R,E)-N-(4-((3-chloro-4-((3-fluorobenzyl)oxy)phenyl)amino)-5-cyclopropoxyquinazolin-6-yl)-3-(1-methylpyrrolidone-2-yl)acrylamide]",< 10 nM,,1 to 5 nM,
"[2H]C([2H])([2H])Oc1c(NC(=O)/C=C/[C@H]2CCCN2CC)ccc2ncnc(Nc3ccc(OCc4ccccn4)c(Cl)c3)c12 [Example 34, (R,E)-N-(4-((3-chloro-4-(pyridin-2-ylmethoxy)phenyl)amino)-5-(methoxy-d3)quinazolin-6-yl)-3-(1-ethylpyrrolidin-2-yl)acrylamide]",< 10 nM,< 10 nM,1 to 5 nM,
"COc1c(NC(=O)/C=C/CN2CCCC2)ccc2ncnc(Nc3ccc(OCc4ccccn4)c(Cl)c3)c12 [Example 43, (E)-N-(4-((3-chloro-4-(pyridin-2-ylmethoxy)phenyl)amino)-5-methoxyquinazolin-6-yl)-4-(pyrrolidine-1-yl)but-2-enamide]",< 10 nM,,,
"COc1c(NC(=O)/C=C/[C@H]2CCCN2C)ccc2ncnc(Nc3ccc(OCc4ccccn4)c(F)c3)c12 [Example 30, (R,E)-N-(4-((3-fluoro-4-(pyridin-2-ylmethoxy)phenyl)amino)-5-methoxyquinazolin-6-yl)-3-(1-methylpyrrolidin-2-yl)acrylamide]",< 10 nM,< 10 nM,1 to 5 nM,
"CN1CCC[C@@H]1/C=C/C(=O)Nc1ccc2ncnc(Nc3ccc(OCc4ccccn4)c(Cl)c3)c2c1OC1CCC1 [Example 39, (R,E)-N-(4-((3-chloro-4-(pyridin-2-ylmethoxy)phenyl)amino)-5-cyclobutoxyquinazolin-6-yl)-3-(1-methylpyrrolidin-2-yl)acrylamide]",< 10 nM,< 10 nM,1 to 5 nM,
"CCOc1c(NC(=O)/C=C/[C@H]2CCCN2C)ccc2ncnc(Nc3ccc(OCc4cccc(C)n4)c(Cl)c3)c12 [Example 22, (R,E)-N-(4-((3-chloro-4-((6-methylpyridin-2-yl)methoxy)phenyl)amino)-5-ethoxyquinazolin-6-yl)-3-(1-methylpyrrolidin-2-yl)acrylamide]",< 10 nM,< 10 nM,1 to 5 nM,
"COc1c(NC(=O)/C=C/[C@H]2CCCN2C2CCC2)ccc2ncnc(Nc3ccc(OCc4ccccn4)c(Cl)c3)c12 [Example 42, (R,E)-N-(4-((3-chloro-4-(pyridin-2-ylmethoxy)phenyl)amino)-5-methoxyquinazolin-6-yl)-3-(1-cyclobutylpyrrolidin-2-yl)acrylamide]",< 10 nM,100 to 1000 nM,,

# Second part, led by results:
IC50 [1],IC50 [2],GI50 [3],Structure (SMILES),other results
< 10 nM,< 10 nM,1 to 5 nM,"CCOc1c(NC(=O)/C=C/[C@H]2CCCN2CC)ccc2ncnc(Nc3ccc(OCc4ccccn4)c(Cl)c3)c12 [Example 20, (R,E)-N-(4-((3-chloro-4-(pyridin-2-ylmethoxy)phenyl)amino)-5-ethoxyquinazolin-6-yl)-3-(1-ethylpyrrolidin-2-yl)acrylamide]",
< 10 nM,< 10 nM,1 to 5 nM,"CN1CCC[C@@H]1/C=C/C(=O)Nc1ccc2ncnc(Nc3ccc(OCc4ccccn4)c(Cl)c3)c2c1OCCF [Example 7, (R,E)-N-(4-((3-chloro-4-(pyridin-2-ylmethoxy)phenyl)amino)-5-(2-fluoroethoxy)quinazolin-6-yl)-3-(1-methylpyrrolidin-2-yl)acrylamide]",
< 10 nM,< 10 nM,1 to 5 nM,"CN1CCC[C@@H]1/C=C/C(=O)Nc1ccc2ncnc(Nc3ccc(OCc4ccccn4)c(Cl)c3)c2c1OC1CCOC1 (stereo partly drawn) [Example 40, (E)-N-(4-((3-chloro-4-(pyridin-2-ylmethoxy)phenyl)amino)-5-((tetrahydrofuran-3-yl)oxy)quinazolin-6-yl)-3-((R)-1-methylpyrrolidin-2-yl)acrylamide]",
< 10 nM,,,"COc1c(NC(=O)/C=C/CN2CCCCC2)ccc2ncnc(Nc3ccc(OCc4ccccn4)c(Cl)c3)c12 [Example 44, (E)-N-(4-((3-chloro-4-(pyridin-2-ylmethoxy)phenyl)amino)-5-methoxyquinazolin-6-yl)-4-(piperidin-1-yl)but-2-enamide]",
< 10 nM,10 to 100 nM,1 to 5 nM,"COc1cccc(COc2ccc(Nc3ncnc4ccc(NC(=O)/C=C/[C@H]5CCCN5C)c(OC)c34)cc2Cl)n1 [Example 27, (R,E)-N-(4-((3-chloro-4-((6-methoxypyridin-2-yl)methoxy)phenyl)amino)-5-methoxyquinazolin-6-yl)-3-(1-methylpyrrolidin-2-yl)acrylamide]",
